# Laboratory results from patent US20150322527A1, “TRANSCRIPTIONAL PROFILING AND BIOMARKER-BASED METHODS FOR IDENTIFYING AND EVALUATING AGENTS FOR ANTIOXIDANT EFFICACY IN COSMETIC SKIN CARE FORMULATIONS” (The Procter & Gamble Company, priority 2010, published 2015).
# Test system: Nrf2-mediated transcription off the antioxidant response element (ARE)
# Assay: ARE activation assay (ARE32 luciferase reporter cell line)
# Format: cell-based
# Settings: 24 hrs
# Excerpt: An ARE reporter cell line may be developed and used to screen for compounds that increase transcription off the ARE in response to oxidative stress, resulting in an increase in cellular antioxidant defense proteins. An ARE32 reporter cell line was adapted to provide an assay for cosmetic agents which may increase transcription off the ARE and increase expression of Phase 2 enzymes, thus augmenting the body's own antioxidant response. ARE32 is a stable reporter cell line produced by CXR Biosciences by transfecting MCF7 cells with pGL8x-ARE (8 copies of the rat GST ARE linked to the luciferase gene) and pCDNA3.1 which contains the neomycin selectable marker. Selection is performed in the presence of G418 and resistant clones are isolated and screened for induction of luciferase. An exemplary standard is tert-butyl hydroquinone (tBHQ), a known activator of Nrf2. ARE32 is a stable MCF7 cell line containing pGL8x-ARE (8 copies of the rat GST ARE linked to the luciferase gene) and pCDNA3.1 which contains the neomycin selectable marker, which was licensed from CXRbiosciences. Selection was performed in the presence of G418 and resistant clones were isolated. Clones were screened for induction of luciferase in response to tBHQ. ARE32 cells are maintained routinely in the DMEM (phenol red free) containing: • 10% FBS • 50 units/ml penicillin & 50 μg/ml streptomycin • 0.8 mg/ml G418 • Cells are subcultured every 3-4 days. […] Induction of Luciferase with tBHQ • 1. In a 96 well-plate, seed 1×10^4 cells/well in 100 μl DMEM containing 50 units/ml penicillin, 50 μg/ml streptomycin, 0.8 mg/ml G418 and 10% FBS. • 2. Incubate the cells at 37° C. in a 5% CO2 incubator for 24 hrs. • 3. […] (10 mM tBHQ of stock solution was freshly prepared in DMSO) • 4. Add 100 ul of media after treatment, final assay volume 200 uL. • 5. Incubate the cells at 37° C. in CO2 incubator for another 24 hrs. • 6. Assay for luciferase activity with Steady-glo Assay System by following the manufacture's instruction: • a. Remove 100 μL of media • b. Add 100 μl of reconstituted substrate directly to well • c. Incubate 5-10 min shaking. • d. […] Read plate for 5 seconds per well. The ARE activation assay described in Example 3 is employed. To test for transcription off the antioxidant response element, the reporter line is grown, compounds are added, each compound in varying doses, and allowed to incubate for 24 hours. Cells are then lysed and luminescent output is detected and quantified. […] Proposed compounds are screened using the ARE assay set forth in Example 3, above. Table 4 illustrates “ARE screening hits” along with concentrations tested for each compound and the observed percent increase in ARE. […]
Compound,ARE (% control) (concentration tested 200 μM),ARE (% control) (concentration tested 0.01%)
O=C(/C=C/c1ccc(O)c(O)c1)O[C@H](Cc1ccc(O)c(O)c1)C(=O)O [Rosmarinic acid],1211 % control,
CCCCCC/C=C/C#CCCCCCCCC(=O)O [Xymenynic acid],329 % control,
O=C(O)CCCCC1CCSS1 (stereo not drawn) [Alpha-lipoic acid],534 % control,
Umbelliferin,,1815 % control
